From patent US9980889B2, “Compositions comprising P-hydroxybenzylamine” (DSM IP ASSETS B.V., priority 2012, dated 2018)

Legend:
Assay in all cases: MIC by agar dilution method according to DIN 58 940
P. acnes = assay type: cell-based, Propionibacterium acnes; settings: Cutibacterium acnes, ATCC11828; P. acnes ATCC 11828; Mueller-Hinton Agar, 36° C., read after 48 h
Protocol: (§1) The antimicrobial activity was assessed by determination of the Minimum Inhibitory Concentration (MIC) using the agar dilution method according to DIN 58 940 at the Labor L+SAG, D−Bad Bocklet-Grossenbrach.
(§2) Culture plates with a diameter of 5.5 cm were prepared with fresh, kept liquid (50° C.) Mueller-Hinton Agar (double concentrated, Merck 1.05437)/aqua purificata comprising p-Hydroxybenzylamine (pHBA) in the concentrations indicated in Table 1 according to standard methods. After solidifying and drying (about 1 h at 36° C.), the culture plates were inoculated with 1 μl of a suspension of the respective microorganism with the colony forming unit as outlined in table 1. The inoculated plates were then incubated at 36° C. The MIC's (i.e. the concentrations where still no growth could be observed) were determined after 18 h for E. coli, P. aeruginosa and S. aureus; after 48 h for P. acnes and after 78 h for A. brasiliensis and C. albicans. Per sample two culture plates were prepared. As control incubated and non-incubated cultures were used.
The suspensions of the microorganism's No. 1-4 were prepared by homogeneous suspension of 3-5 colonies of the same morphology in physiological NaCl-solution. The suspensions were adjusted such, that the haze corresponded to the Mac Farland standard 1.0 (about 3.0*10^8 KBE*/ml). […] The colony count was determined using a spiral plater system (see table 2).

A. brasiliensis = assay type: cell-based; settings: Aspergillus brasiliensis, ATCC16404; A. brasiliensis ATCC 16404; Mueller-Hinton Agar, 36° C., read after 78 h
Protocol: as §1, §2
(§3) The suspensions of the microorganism's No. 1-4 were prepared by homogeneous suspension of 3-5 colonies of the same morphology in physiological NaCl-solution. The suspensions were adjusted such, that the haze corresponded to the Mac Farland standard 1.0 (about 3.0*10^8 KBE*/ml). For the preparation of the suspensions of the microorganisms 5 and 6, the microorganisms have been taken with a sterile swab and diluted in an amount of physiological NaCl solution such, that the haze corresponded to the Mac Farland standard 1.0. Afterwards the suspensions of the microorganisms 1 and 3-6 have been further diluted with physiological NaCl-solution in a ratio of 1:10. The colony count was determined using a spiral plater system (see table 2).

C. albicans = assay type: cell-based; settings: Candida albicans, ATCC10231; C. albicans ATCC 10231; Mueller-Hinton Agar, 36° C., read after 78 h
Protocol: as §1, §2, §3

E. coli = assay type: cell-based; settings: Escherichia coli, ATCC8739; E. coli ATCC 8739; Mueller-Hinton Agar, 36° C., read after 18 h
Protocol: as §1, §2, §3

P. aeruginosa = assay type: cell-based; settings: Pseudomonas aeruginosa, ATCC9027; P. aeruginosa ATCC 9027; Mueller-Hinton Agar, 36° C., read after 18 h
Protocol: as §1, §2, §3

S. aureus = assay type: cell-based; settings: Staphylococcus aureus, ATCC6538; S. aureus ATCC 6538; Mueller-Hinton Agar, 36° C., read after 18 h
Protocol: as §1, §2, §3

Measured: MIC

NCc1ccc(O)cc1 [pHBA, p-Hydroxybenzylamine]
7900 µg/mL: P. acnes
5270 µg/mL: all other assays above
